T/C data for 20 compounds are collected here from PubChem BioAssay AID328 (DTP/NCI, 2004).

Assay [1] relates to BDF1 mice, P388 leukemia ip, median survival T/C. Put plainly: NCI In Vivo Anticancer Drug Screen. Data for tumor model P388 Leukemia (intraperitoneal) in B6D2F1 (BDF1) mice. The conditions noted are these: endpoint: median survival time, higher = longer survival. In outline:
(§1)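 Steps: implant the tumour, treat one group with compound and another with vehicle, record survival, then divide treated by control.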

Assay [2] has as its system BDF1 mice, P388 leukemia ip. The description is as above. The settings on record: endpoint: mean survival time, schedule: Q01DX009 (ip), vehicle: water, higher = longer survival. In outline:
as §1

The mark [3] stands for this setting: dose: 25.0 mg/kg/injection, schedule: Q01DX009 (ip), vehicle: saline with Tween-80.
Where [4] appears, read: dose: 50.0 mg/kg/injection, schedule: Q01DX009 (ip), vehicle: saline with Tween-80.
Setting [5] is: dose: 200.0 mg/kg/injection, schedule: Q01DX009 (ip), vehicle: saline with Tween-80.
Setting [6] is: dose: 100.0 mg/kg/injection, schedule: Q01DX009 (ip), vehicle: saline with Tween-80.
Where [7] appears, read: dose: 400.0 mg/kg/injection, schedule: Q01DX009 (ip), vehicle: saline with Tween-80.
Setting [8] is: dose: 100.0 mg/kg/injection, schedule: Q04DX003 (ip), vehicle: saline with Tween-80.
Where [9] appears, read: dose: 200.0 mg/kg/injection, schedule: Q04DX003 (ip), vehicle: saline with Tween-80.
Where [10] appears, read: dose: 400.0 mg/kg/injection, schedule: Q04DX003 (ip), vehicle: saline with Tween-80.
[11] abbreviates: dose: 100.0 mg/kg/injection, schedule: Q04DX003 (ip), vehicle: Klucel (hydroxypropylcellulose) (HPC).
The mark [12] stands for this setting: dose: 100.0 mg/kg/injection, schedule: Q04DX003 (ip), vehicle: saline.
Where [13] appears, read: dose: 200.0 mg/kg/injection, schedule: Q04DX003 (ip), vehicle: saline.
[14] abbreviates: dose: 400.0 mg/kg/injection, schedule: Q04DX003 (ip), vehicle: saline.
Where [15] appears, read: dose: 25.0 mg/kg/injection, schedule: Q04DX003 (ip), vehicle: saline with Tween-80.
The mark [16] stands for this setting: dose: 50.0 mg/kg/injection, schedule: Q04DX003 (ip), vehicle: saline with Tween-80.
[17] abbreviates: dose: 100.0 mg/kg/injection, schedule: Q04DX002 (ip), vehicle: saline with Tween-80.
Where [18] appears, read: dose: 200.0 mg/kg/injection, schedule: Q04DX002 (ip), vehicle: saline with Tween-80.

Several values for one entry are separate records, joined by “and”; a condition that tells them apart may be missing. Equal entries are not always repeated. Toxic doses and inconclusive results are not listed.

Turning to `CN(C)Cc1ccc(C(C)(C)C)cc1`, the T/C in assay [1] (dose: 6.25 mg/kg/injection, schedule: Q04DX003 (ip), vehicle: water) was 98 % of control; in assay [1] (dose: 12.5 mg/kg/injection, schedule: Q04DX003 (ip), vehicle: water), 112 % of control; in assay [1] (dose: 25.0 mg/kg/injection, schedule: Q04DX003 (ip), vehicle: water) it was 106 % of control; in assay [1] (dose: 50.0 mg/kg/injection, schedule: Q04DX003 (ip), vehicle: water) it was 106 % of control; in assay [1] (dose: 100.0 mg/kg/injection, schedule: Q04DX003 (ip), vehicle: water) it was 99 % of control and 100 % of control; in assay [2] (dose: 3.12 mg/kg/injection) it was 108 % of control. Also, the T/C in assay [2] (dose: 6.25 mg/kg/injection) is 100 % of control; in assay [2] (dose: 12.5 mg/kg/injection), 102 % of control; in assay [2] (dose: 25.0 mg/kg/injection) it was 96 % of control; in assay [2] (dose: 100.0 mg/kg/injection) it was 95 % of control.

For `COc1ccc2c(c1)C(Cc1ccc(Oc3ccc(CC4c5cc(OC)ccc5CC[N+]4(C)C)cc3)cc1)[N+](C)(C)CC2` (centres undefined), the T/C is 104 % of control in assay [1] (dose: 0.1 mg/kg/injection, schedule: Q04DX003 (ip), vehicle: saline); 100 % of control in assay [1] (dose: 0.2 mg/kg/injection, schedule: Q04DX003 (ip), vehicle: saline); 93 % of control in assay [1] (dose: 0.39 mg/kg/injection, schedule: Q04DX003 (ip), vehicle: saline with Tween-80); 96 % of control in assay [1] (dose: 0.4 mg/kg/injection, schedule: Q04DX003 (ip), vehicle: saline).

In the case of `COC(=O)C(Cl)(Cl)N=Nc1c(Cl)cc(Cl)c(C)c1Cl`, the T/C in assay [1] (setting [3]) is 119 % of control; in assay [1] (setting [4]), 124 % of control; in assay [1] (setting [5]), 89 % of control.

As for `CCN(CC)S(=O)(=O)c1ccc(-c2cc(Cl)c3cc(S(=O)(=O)F)ccc3n2)cc1`, the T/C is 110 % of control in assay [1] (setting [6]), 90 % of control in assay [1] (setting [5]) and 100 % of control in assay [1] (setting [7]).

In the case of `CCCn1c(C)nc2cc(C(F)(F)F)cc(N)c21`, the T/C is 103 % of control in assay [1] (setting [8]), 92 % of control in assay [1] (setting [9]) and 97 % of control in assay [1] (setting [10]).

As for `CC1=NC2=NC(CCCC(=O)Nc3ccc(Cl)cc3)=NC3=CC=CC(=N1)N32`, the T/C was 104 % of control in assay [1] (setting [3]), 95 % of control in assay [1] (setting [4]) and 99 % of control in assay [1] (setting [6]).

Consider `O=C(C=C(C(F)(F)F)C(F)(F)F)c1ccc([N+](=O)[O-])cc1`, for which the T/C is 100 % of control in assay [1] (dose: 1.56 mg/kg/injection, schedule: Q01DX009 (ip), vehicle: other); 109 % of control in assay [1] (dose: 3.13 mg/kg/injection, schedule: Q01DX009 (ip), vehicle: other); 104 % of control in assay [1] (dose: 6.25 mg/kg/injection, schedule: Q01DX009 (ip), vehicle: other).

Consider `O=C(O)/C=C/c1cc2c(cc1[N+](=O)[O-])OCO2`, for which the T/C in assay [1] (dose: 100.0 mg/kg/injection, schedule: Q01DX009 (ip), vehicle: Klucel (hydroxypropylcellulose) (HPC)) was 88 % of control; in assay [1] (setting [11]), 91 % of control; in assay [1] (dose: 200.0 mg/kg/injection, schedule: Q01DX009 (ip), vehicle: Klucel (hydroxypropylcellulose) (HPC)), 96 % of control; in assay [1] (dose: 200.0 mg/kg/injection, schedule: Q04DX003 (ip), vehicle: Klucel (hydroxypropylcellulose) (HPC)), 95 % of control; in assay [1] (dose: 400.0 mg/kg/injection, schedule: Q04DX003 (ip), vehicle: Klucel (hydroxypropylcellulose) (HPC)), 87 % of control.

Take `NC(=O)C(O)C(Br)(Br)Br` (centres undefined): the T/C was 116 % of control in assay [1] (dose: 100.0 mg/kg/injection, schedule: Q01DX009 (ip), vehicle: saline); 95 % of control in assay [1] (setting [12]); 108 % of control in assay [1] (dose: 200.0 mg/kg/injection, schedule: Q01DX009 (ip), vehicle: saline); 104 % of control in assay [1] (setting [13]); 100 % of control in assay [1] (setting [14]).

As for `CC(=O)CSc1nc2nccnc2[nH]1`, the T/C in assay [1] (setting [3]) was 111 % of control; in assay [1] (setting [15]), 97 % of control; in assay [1] (setting [4]), 111 % of control; in assay [1] (setting [16]) it was 108 % of control; in assay [1] (setting [6]), 106 % of control; in assay [1] (setting [8]), 97 % of control. In addition, the T/C is 106 % of control in assay [1] (setting [5]), 105 % of control in assay [1] (setting [9]), 103 % of control in assay [1] (setting [7]) and 100 % of control in assay [1] (setting [10]).

For the compound `CC#CCOCC1CN(c2ccccc2)C(=O)O1` (centres undefined), the T/C in assay [1] (setting [12]) is 92 % of control; in assay [1] (setting [5]), 100 % of control; in assay [1] (setting [13]), 92 % of control; in assay [1] (setting [7]), 100 % of control; in assay [1] (setting [14]), 100 % of control.

As to `Nc1nc(N)c(Nc2ccc(Cl)cc2)c(Cl)n1`, the T/C in assay [1] (dose: 100.0 mg/kg/injection, schedule: Q01DX001 (ip), vehicle: saline with Tween-80) was 88 % of control; in assay [1] (dose: 200.0 mg/kg/injection, schedule: Q01DX001 (ip), vehicle: saline with Tween-80), 89 % of control.

For `O=Ic1ccccc1`, the T/C is 105 % of control and 118 % of control in assay [1] (dose: 6.25 mg/kg/injection, schedule: Q01DX009 (ip), vehicle: Klucel (hydroxypropylcellulose) (HPC)); 105 % of control and 116 % of control in assay [1] (dose: 12.5 mg/kg/injection, schedule: Q01DX009 (ip), vehicle: Klucel (hydroxypropylcellulose) (HPC)); 122 % of control and 124 % of control and 204 % of control in assay [1] (dose: 25.0 mg/kg/injection, schedule: Q01DX009 (ip), vehicle: Klucel (hydroxypropylcellulose) (HPC)); 104 % of control in assay [1] (dose: 50.0 mg/kg/injection, schedule: Q04DX003 (ip), vehicle: Klucel (hydroxypropylcellulose) (HPC)); 95 % of control in assay [1] (setting [11]).

Regarding `CSC1C(=O)Nc2c1cccc2[N+](=O)[O-]` (centres undefined), the T/C in assay [1] (dose: 50.0 mg/kg/injection, schedule: Q04DX002 (ip), vehicle: saline with Tween-80) was 96 % of control; in assay [1] (setting [17]), 92 % of control; in assay [1] (setting [18]), 99 % of control.

For the compound `Cc1cccc(/C=N/Nc2ccccn2)n1`, the T/C was 108 % of control in assay [1] (dose: 50.0 mg/kg/injection, schedule: Q01DX005 (ip), vehicle: saline with Tween-80) and 118 % of control in assay [1] (dose: 100.0 mg/kg/injection, schedule: Q01DX005 (ip), vehicle: saline with Tween-80).

With `COC(=O)c1cccc(OC)c1C(=O)OC`, the T/C in assay [1] (setting [17]) was 104 % of control; in assay [1] (setting [18]) it was 102 % of control.

Regarding `CCC(=O)/C(=C\c1ccccc1Cl)C(C)=O`, the figures for the T/C in assay [1] (setting [4]), in assay [1] (setting [6]) and in assay [1] (setting [5]) were 108 % of control, 116 % of control and 120 % of control, respectively.

As for `CC(C(=O)O)S(=O)(=O)c1ccccc1` (centres undefined), the T/C in assay [1] (setting [17]) is 93 % of control; in assay [1] (setting [18]), 102 % of control.

For the compound `Cc1nccn1C[c-]1[c-][c-][c-][c-]1.[Fe].[c-]1[c-][c-][cH-][c-]1`, the T/C was 108 % of control in assay [1] (dose: 6.25 mg/kg/injection, schedule: Q01DX009 (ip), vehicle: saline); 99 % of control in assay [1] (dose: 12.5 mg/kg/injection, schedule: Q01DX009 (ip), vehicle: saline); 100 % of control in assay [1] (dose: 25.0 mg/kg/injection, schedule: Q01DX009 (ip), vehicle: saline).

As for `CC(=O)Nc1nc(Cl)c([N+](=O)[O-])c(SCc2ccccc2)n1`, the T/C in assay [1] (dose: 12.5 mg/kg/injection, schedule: Q01DX009 (ip), vehicle: saline with Tween-80) was 94 % of control; in assay [1] (setting [3]), 98 % of control; in assay [1] (setting [15]) it was 116 % of control; in assay [1] (setting [4]), 107 % of control; in assay [1] (setting [16]) it was 114 % of control; in assay [1] (setting [6]), 96 % of control. Further, the T/C in assay [1] (setting [8]) was 114 % of control; in assay [1] (setting [9]), 96 % of control.
